Here are results for five molecules from patent US8916711B2, “Imidazothiazole-chalcone derivatives as potential anticancer agents and process for the preparation thereof” (Council of Scientific and Industrial Research, priority 2009, dated 2014).

This test relates to LOX IMVI. Description: NCI in vitro cytotoxicity (SRB, 48 h), Melanoma panel. As to conditions: Homo sapiens, 48 h exposure. It counts as cell-based.
As for `COc1ccc(-c2nc3sccn3c2/C=C/C(=O)c2cc(OC)c(OC)c(OC)c2)cc1` [Compound 7a, (E)-3-(6-(4-methoxyphenyl)imidazo[2,1-b]thiazol-5-yl)-1-(3,4,5-trimethoxyphenyl) prop-2-en-1-one], the GI50 (as a rule, the concentration at which growth is held to half of that of the control) is 2420 nM.

Take `COc1cc(C(=O)/C=C/c2c(-c3ccc(F)cc3)nc3sccn23)cc(OC)c1OC` [Compound 7e, (E)-3-(6-(4-fluorophenyl)imidazo[2,1-b]thiazol-5-yl)-1-(3,4,5-trimethoxyphenyl)prop-2-en-1-one]: it took 1850 nM to inhibit growth by half (GI50). As for `COc1cc(C(=O)/C=C/c2c(C(F)(F)F)nc3sccn23)cc(OC)c1OC` [Compound 7f, (E)-3-(6-(trifluoromethyl)imidazo[2,1-b]thiazol-5-yl)-1-(3,4,5-trimethoxyphenyl)prop-2-en-1-one], the figure is 1360 nM; as for `COc1ccc(C(=O)/C=C/c2c(C(F)(F)F)nc3sccn23)cc1OC` [Compound 8f, (E)-1-(3,4-dimethoxyphenyl)-3-(6-(trifluoromethyl)imidazo[2,1-b]thiazol-5-yl) prop-2-en-1-one], 600 nM; as for `COc1cc(C(=O)/C=C/c2c(-c3ccc(F)cc3)nc3sc(C)cn23)cc(OC)c1OC` [Compound 19e, (E)-3-(6-(4-fluorophenyl)-2-methylimidazo[2,1-b]thiazol-5-yl)-1-(3,4,5-trimethoxyphenyl)prop-2-en-1-one], 2500 nM.
